B1: PRL: 25 kDa hormone produced by the anterior pituitary (protein, UniProt P01236 29-227, looked up)
Prolactin: LPICPGGAARCQVTLRDLFDRAVVLSHYIHNLSSEMFSEFDKRYTHGRGFITKAINSCHTSSLATPEDKEQAQQMNQKDFLSLIVSILRSWNEPLYHLVTEVRGMQEAPEAILSKAVEIEEQTKRLLEGMELIVSQVHPETKENEIYPVWSGLPSLQMADEESRLSAYYNLLHCLRRDSHKIDNYLKLLKCRIIHNNNC

Experiments:
[1] = tested on: MDA-MB-468 breast cancer cells; experiment: LDH cytotoxicity assay; format: cell-based; conditions: especially at 10-fold higher doses
Description: (§1) FIG. 1A. Bar graph showing inhibition of PRL-induced invasion of breast cancer cells by SMI-1 and SMI-6; FIG. 1B. Bar graph showing only minimal cytotoxicity at indicated concentrations.
(§2) Both SMI-1 and SMI-6 at 1 μM concentrations abrogated PRL-induced invasion of MDA-MB-468 breast cancer cells, using Boyden chambers (FIG. 1A).

[2] = tested on: MDA-MB-468 breast cancer cells; experiment: PRL-induced invasion of breast cancer cells, Boyden chambers; format: cell-based; conditions: 1 μM
Description: as §1, §2

Jurkat human lymphocytes = experiment: Autocrine PRL-dependent BrdU uptake (cell proliferation) by flow cytometry; format: cell-based; conditions: for cell proliferation (BrdU uptake) driven by autocrine PRL: 1 μM SMI 24 hrs in 2% charcoal-stripped serum, then 1 nM PRL 24 hrs
Description: FIG. 2. Bar graph showing suppression of autocrine PRL-dependent BrdU uptake in Jurkat lymphocytes by […] of each SMI, as determined by flow cytometry; the top panel indicates percent of live cells.
To examine whether the SMIs can suppress cell proliferation that is driven by autocrine PRL, Jurkat human lymphocytes were utilized, which produce large amounts of autocrine PRL. Autocrine PRL in lymphocytes is well known to promote cell proliferation. The cells were incubated for 24 hrs in 2% charcoal-stripped serum (which is devoid on exogenous lactogenic hormones) with 1 μM of SMI-1 or SMI-6, and then with 1 nM PRL for 24 hrs. BrdU uptake was analyzed by flow cytometry.

[3] = tested on: postoperative thermal pain; experiment: Thermal nociception (heat hyperalgesia, paw withdrawal latency) after hind paw surgery; format: in vivo; conditions: female mice
Description: FIG. 3. […] Female mice were operated on the right hind paw. One day after surgery, 5 μg SMI-6 was applied either peripherally or centrally/spinally (5 μg or 25 μg) and mice were subjected to thermal nociception or mechanical allodynia (increased sensitization to tactile stimuli). […] SMI-6 at the 25 μg dose was effective in alleviating thermal pain by as much as 75%.

[4] = tested on: postoperative mechanical pain; experiment: Mechanical allodynia (anesthesiometer, withdrawal threshold) after hind paw surgery; format: in vivo; conditions: female mice, one day after surgery; 5 μg peripherally, 5 μg or 25 μg spinally
Description: FIG. 4. […] BL—baseline: POP—postoperative pain; SMI-6 was applied either peripherally ([…]), or spinally ([…]); each value is a mean±SME of 6 mice/treatment. Female mice were operated on the right hind paw. One day after surgery, 5 μg SMI-6 was applied either peripherally or centrally/spinally (5 μg or 25 μg) and mice were subjected to thermal nociception or mechanical allodynia (increased sensitization to tactile stimuli). […] SMI-6 at the 25 μg dose was effective in alleviating thermal pain by as much as 75%. For evaluating allodynia, an anesthesiometer was used, which applied a constant ramp of increasing mechanical pressure to the injured paw. […] was measured in grams.

| Molecule | toxicity in LDH cytotoxicity assay [1] | PRL-induced invasion of MDA-MB-468 breast cancer cells [2] | cell proliferation (BrdU uptake) driven by autocrine PRL (Jurkat human lymphocytes) | alleviation of thermal pain ([3]; 25 μg dose) | alleviation of thermal pain (leg withdrawal latency), dose dependence ([3]; one day after surgery, 5 μg peripherally, 5 μg or 25 μg spinally) | abrogation of mechanical pain (allodynia, withdrawal threshold) [4] | effect of added PRL on BrdU uptake (Jurkat human lymphocytes; 1 nM PRL for 24 hrs) |
| --- | --- | --- | --- | --- | --- | --- | --- |
| Cn1nc(Nc2ccc(Cl)cc2O)c(N)nc1=O [SMI-1] | minimal toxicity | abrogated | completely blocked | – | – | – | – |
| CCN(CC)c1ccc(/C=N/NC(=O)c2c(Cl)cnn2C)c(O)c1 [SMI-6] | minimal toxicity | abrogated | completely blocked | ≤ 75% | dose-dependent alleviation | equally as effective | – |
| B1 | – | – | – | – | – | – | no effect |
